Results as given in US20240190880A1 (THE REGENTS OF THE UNIVERSITY OF MICHIGAN, priority 2021, published 2024).

Each molecule was assayed against T1, ER (Homo sapiens, UniProt P03372) (assay: ER degradation activity, in-cell western blot analysis in T47D cells). Conditions: 16 hours, Table A does not say which cell line (T47D or MCF7), read-out: Potency (DC50).
T1 construct: host or cells: T47D and MCF7 human breast cancer cells
T1 sequence (P03372 1-595): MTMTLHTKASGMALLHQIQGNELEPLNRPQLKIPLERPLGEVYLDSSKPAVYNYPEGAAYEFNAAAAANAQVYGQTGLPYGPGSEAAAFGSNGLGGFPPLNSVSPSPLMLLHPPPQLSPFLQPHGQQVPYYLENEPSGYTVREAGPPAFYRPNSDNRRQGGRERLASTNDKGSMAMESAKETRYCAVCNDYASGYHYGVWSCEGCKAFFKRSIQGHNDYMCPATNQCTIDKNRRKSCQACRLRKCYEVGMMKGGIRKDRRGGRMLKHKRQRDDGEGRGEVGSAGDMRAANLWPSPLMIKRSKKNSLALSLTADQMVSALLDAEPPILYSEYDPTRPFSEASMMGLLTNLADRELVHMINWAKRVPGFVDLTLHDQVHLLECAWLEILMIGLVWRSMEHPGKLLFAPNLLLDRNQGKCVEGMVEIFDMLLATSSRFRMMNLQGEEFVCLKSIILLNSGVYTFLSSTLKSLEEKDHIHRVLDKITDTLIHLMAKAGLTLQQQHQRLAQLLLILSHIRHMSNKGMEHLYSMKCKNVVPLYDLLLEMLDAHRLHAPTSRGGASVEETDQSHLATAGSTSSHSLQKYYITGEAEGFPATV
Assay type: cell-based
Method in brief: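 T47D cells grown in DMEM with 10% FBS were treated with compounds for 16 hours at 0.5% DMSO final. ER was detected by in-cell western using 680/800 near-infrared secondary antibodies. Residual ER is given as percent of untreated and DMSO-treated wells set to 100%.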

Structure (SMILES)	DC50
O=C1CCC(N2Cc3cc4c(cc3C2=O)CN(C(=O)[C@H]2CC[C@@H](N3CC(Oc5ccc([C@@H]6c7ccc(O)cc7CC[C@@H]6c6ccccc6)cc5)C3)CC2)C4)C(=O)N1 (single isomer, unassigned) [E 358]	> 100 nM
O=C1CCC(N2Cc3cc4c(cc3C2=O)CN(C(=O)[C@H]2CC[C@H](N3CC(Nc5ccc([C@@H]6c7ccc(O)cc7CC[C@@H]6c6ccccc6)cc5)C3)CC2)C4)C(=O)N1 (single isomer, unassigned) [E 360]	< 10 nM
O=C1CCC(N2Cc3cc4c(cc3C2=O)CN(C(=O)[C@H]2CC[C@@H](N3CC(Nc5ccc([C@@H]6c7ccc(O)cc7CC[C@@H]6c6ccccc6)cc5)C3)CC2)C4)C(=O)N1 (single isomer, unassigned) [E 361]	> 100 nM
C[C@H]1Cc2c([nH]c3ccccc23)[C@H](c2c(F)cc(N3CC4(CCCN(C(=O)CN5Cc6cc7c(cc6C5)C(=O)N(C5CCC(=O)NC5=O)C7=O)C4)C3)cc2F)N1CC(F)F (stereo in doubt) [E 80, 6-(2-(2-(4-((1S,3S)-2-(2,2-difluoroethyl)-3-methyl-2,3,4,9-tetrahydro-1H-pyrido[3,4-b]indol-1-yl)-3,5-difluorophenyl)-2,6-diazaspiro[3.5]nonan-6-yl)-2-oxoethyl)-2-(2,6-dioxopiperidin-3-yl)-6,7-dihydropyrrolo[3,4-f]isoindole-1,3(2H,5H)-dione]	10 to 100 nM
C[C@H]1Cc2c([nH]c3ccccc23)[C@H](c2c(F)cc(N3CC4(CCN(C(=O)CN5Cc6cc7c(cc6C5)C(=O)N(C5CCC(=O)NC5=O)C7=O)CC4)C3)cc2F)N1CC(F)F (stereo in doubt) [E 84, 6-(2-(2-(4-((1S,3S)-2-(2,2-difluoroethyl)-3-methyl-2,3,4,9-tetrahydro-1H-pyrido[3,4-b]indol-1-yl)-3,5-difluorophenyl)-2,7-diazaspiro[3.5]nonan-7-yl)-2-oxoethyl)-2-(2,6-dioxopiperidin-3-yl)-6,7-dihydropyrrolo[3,4-f]isoindole-1,3(2H,5H)-dione]	< 10 nM
C[C@H]1Cc2c([nH]c3ccccc23)[C@H](c2c(F)cc(N3CC4(CCN(C(=O)CN5Cc6cc7c(cc6C5)C(=O)N(C5CCC(=O)NC5=O)C7)CC4)C3)cc2F)N1CC(F)F (stereo in doubt) [E 85, 3-(6-(2-(2-(4-((1S,3S)-2-(2,2-difluoroethyl)-3-methyl-2,3,4,9-tetrahydro-1H-pyrido[3,4-b]indol-1-yl)-3,5-difluorophenyl)-2,7-diazaspiro[3.5]nonan-7-yl)-2-oxoethyl)-1-oxo-3,5,6,7-tetrahydropyrrolo[3,4-f]isoindol-2(1H)-yl)piperidine-2,6-dione]	< 10 nM
O=C1CCC(N2C(=O)c3cc4c(cc3C2=O)CN(C2CCN(CC3CN(c5ccc([C@@H]6c7ccc(O)cc7CC[C@@H]6c6ccccc6)cc5)C3)CC2)C4)C(=O)N1 (stereo partly drawn) [E243, 2-(2,6-dioxopiperidin-3-yl)-6-(1-((1-(4-((1R,2S)-6-hydroxy-2-phenyl-1,2,3,4-tetrahydronaphthalen-1-yl)phenyl)azetidin-3-yl)methyl)piperidin-4-yl)-6,7-dihydropyrrolo[3,4-f]isoindole-1,3(2H,5H)-dione]	< 10 nM
O=C1CCC(N2C(=O)c3cc4c(cc3C2=O)CN(CC2CCN(CC3CN(c5ccc([C@@H]6c7ccc(O)cc7CC[C@@H]6c6ccccc6)cc5)C3)CC2)C4)C(=O)N1 (stereo partly drawn) [E244, 2-(2,6-dioxopiperidin-3-yl)-6-((1-((1-(4-((1R,2S)-6-hydroxy-2-phenyl-1,2,3,4-tetrahydronaphthalen-1-yl)phenyl)azetidin-3-yl)methyl)piperidin-4-yl)methyl)-6,7-dihydropyrrolo[3,4-f]isoindole-1,3(2H,5H)-dione]	10 to 100 nM
O=C1CCC(N2C(=O)c3cc4c(cc3C2=O)CN(CC2(F)CCN(CC3CN(c5ccc([C@@H]6c7ccc(O)cc7CC[C@@H]6c6ccccc6)cc5)C3)CC2)C4)C(=O)N1 (stereo partly drawn) [E245, 2-(2,6-dioxopiperidin-3-yl)-6-((4-fluoro-1-((1-(4-((1R,2S)-6-hydroxy-2-phenyl-1,2,3,4-tetrahydronaphthalen-1-yl)phenyl)azetidin-3-yl)methyl)piperidin-4-yl)methyl)-6,7-dihydropyrrolo[3,4-f]isoindole-1,3(2H,5H)-dione]	> 100 nM
